Experimental data published in PubChem BioAssay AID2060500 (Molecular Pharmacology Branch, DTP, NCI, 2025).
“And” between values parts separate entries of the source, which are not always exact repeats. Equal entries are not always repeated.

System: 596521-263-R-J1-PDC complex spheroids, viability % of control
Test: Anticancer human tumor 596521-263-R-J1-PDC patient-derived soft tissue sarcoma cell line growth inhibition [GQUAD]
Conditions: for viability, T/C: stronger effect = lower value
Text: DNA G-quadruplex Stabilizer Agents in Combinations in Complex Spheroids
A high-throughput screen of multi-cell type tumor spheroids was designed to identify active combinations of DNA G-quadruplex stabilizer agents and targeted small molecules. Complex spheroids include a stromal component modeled by human endothelial cells (HUVEC) and fibroblasts modeled by human mesenchymal stem cells (MSCs). The concentration ranges selected for each drug and investigational agent were based upon clinically achievable concentrations if the clinical Cmax of the agent was known.
Compounds. The drugs and investigational agents: pidnarulex (CX-5461; NSC782164), APTO-253 (NSC789042), BRACO-19 (NSC847499), peposertib (NSC802822), ceralasertib (NSC780249), elimusertib (NSC800525), camonsertib (NSC841442), AZD-1390 (NSC803789), olaparib (NSC753686), talazoparib (NSC767125), ART-558 (NSC835418), sotorasib (NSC818433), MRTX-1133 (NSC836407), SN-38 (NSC673596), topotecan (NSC609699), etoposide (NSC141540), doxorubicin (NSC123127), gemcitabine (NSC613327), 5-fluorouracil (NSC19893), paclitaxel (NSC125973), vemurafenib (NSC761431), panobinostat (NSC761190), R-306465 (JNJ-16241199; NSC773264), adavosertib (NSC754352), TP-3654 (NSC805149), carboplatin (NSC241240), KSQ-4279 (NSC840948), and staurosporine (NSC755774) were obtained from the National Cancer Institute (NCI) Developmental Therapeutics Program Chemical Repository (34). The FDA-approved anticancer drug set is available from the NCI Developmental Therapeutics Program. […] The stock solutions were prepared in dimethyl sulfoxide (DMSO, Sigma-Aldrich, St. Louis, MO, cat. D2650) at 800-fold the tested concentration and stored at -70 degrees C prior to their use. All drugs and investigational agents were tested over a range starting from a high concentration at or near the clinical Cmax and decreasing in half-log increments. If the clinical Cmax for an agent had not been determined, the highest concentration tested was 10 microM.
2.3 Cell Culture. All cells were maintained in an incubator at 37 degrees C and 5% CO2 with 95% humidity. The PDC lines were cultured according to standard operating procedures established by the NCI PDMR. All PDCs were thawed and cultured in Matrigel-coated flasks prepared with a working solution of 1X Ham's F-12 nutrient mix, without supplementation (Invitrogen, cat. 11765054), 100 U/mL penicillin-streptomycin (Invitrogen, cat. 15140122), and 2.5% Matrigel (Corning Inc., cat. 354248) for the first three passages. The 857933-349-R-J2-PDC line was cultured in 6C/Colon 1B media, which includes advanced DMEM/F-12 (Thermo Fisher Scientific, cat. 12634028), 10 mM HEPES (Thermo Fisher Scientific, cat. 15630080), 1X GlutaMAX supplement (Thermo Fisher Scientific, cat. 35050061), 0.1 mg/mL primocin (InvivoGen, cat. ant-pm-2), 10% defined fetal bovine serum, heat inactivated (HyClone Laboratories Inc., cat. SH30070.03HI), 50% L-WRN conditioned media (ATCC, cat. CRL-3276), 1.25 mM N-Acetyl-L-cysteine (Sigma-Aldrich, cat. A9165), 10 mM nicotinamide (Sigma-Aldrich, cat. N0636), 1X B-27 supplement (Thermo Fisher Scientific, cat. 17504044), 1X N-2 supplement (Thermo Fisher Scientific, cat. 17502048), 10 microM Y-27632 dihydrochloride (Tocris Bioscience, cat. 1254), and 50 ng/mL human EGF recombinant protein (Thermo Fisher Scientific, cat. PHG0311). The 485176-168-R4-J1-PDC line was cultured in Panc media, which includes all 6C/Colon 1B media components plus 100 ng/mL human FGF-10 (Thermo Fisher Scientific, cat. 100-26), 500 nM SB-431542 (Selleckchem, cat. S1067), and gastrin (Tocris, cat. 3006).
[…]
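Also: spheroids exposed to drugs for 7 days before viability reading.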

| IC50 (curve of compound) | IC50 (compound alone, run of 04/22/2024) | Compound | viability, T/C (compound 0.0316 µM) | viability, T/C (compound 0.1 µM) | viability, T/C (compound 0.316 µM) | viability, T/C (compound 1 µM) | viability, T/C (compound 3.16 µM) | viability, T/C (compound 10 µM) | viability, T/C (compound 0.000999 µM) | viability, T/C (compound 0.00316 µM) | viability, T/C (compound 0.00999 µM) | viability, T/C (compound 0.0999 µM) |
| --- | --- | --- | --- | --- | --- | --- | --- | --- | --- | --- | --- | --- |
| > 10000 nM and 1560 nM |  | C#Cc1c(F)ccc2cc(O)cc(-c3ncc4c(N5CC6CCC(C5)N6)nc(OCC56CCCN5CC(F)C6)nc4c3F)c12 (stereo unspecified) | 87.5% and 92.6% and 98.3% | 94.6% and 94.2% and 103% | 92.4% and 101% and 107% | 89.7% and 67.3% and 92.5% | 124% and 22.8% and 104% | 75% and 22.5% and 78.4% |  |  |  |  |
| > 10000 nM |  | C=CC(=O)N1CCN(c2nc(=O)n(-c3c(C)ccnc3C(C)C)c3nc(-c4c(O)cccc4F)c(F)cc23)C(C)C1 (stereo unspecified) | 107% and 105% and 114% | 92.7% and 91.9% and 95.5% | 96.9% and 101% and 108% | 114% and 120% and 118% | 96.2% and 97% and 113% | 73.2% and 66.5% and 84.6% |  |  |  |  |
|  |  | C=CCn1c(=O)c2cnc(Nc3ccc(N4CCN(C)CC4)cc3)nc2n1-c1cccc(C(C)(C)O)n1 | 99.8% and 97.8% and 103% | 92% and 80.4% and 93.1% | 96.9% and 51.6% and 61.3% | 92.4% and 41% and 41.4% | 67.7% and 34.9% and 37% | 33.8% and 38.8% and 32.9% |  |  |  |  |
| 78.3 nM and < 31.6 nM |  | CC(=O)O[C@H]1C(=O)[C@@]2(C)[C@H]([C@H](OC(=O)c3ccccc3)[C@]3(O)C[C@H](OC(=O)[C@H](O)[C@@H](NC(=O)c4ccccc4)c4ccccc4)C(C)=C1C3(C)C)[C@]1(OC(C)=O)CO[C@@H]1C[C@@H]2O | 76.3% and 38.3% and 43.2% | 42.8% and 28.9% and 29% | 10.7% and 26.6% and 31.2% |  |  |  |  |  |  |  |
| > 10000 nM and 1160 nM and 1540 nM |  | CC(C)(O)C1CCC(Nc2ccc3ncc(-c4cccc(C(F)(F)F)c4)n3n2)CC1 (stereo unspecified) | 106% and 99.4% and 95.7% | 98.4% and 97.7% and 91.8% | 103% and 93.5% and 85.9% | 97.1% and 55.2% and 69.5% | 108% and 10.6% and 16.7% | 84% and 18.1% and 15.5% |  |  |  |  |
| > 10000 nM |  | CC(C)n1c(=O)n(C)c2cnc3cc(F)c(-c4ccc(OCCCN5CCCCC5)nc4)cc3c21 | 95.5% and 105% and 103% | 92.9% and 102% and 101% | 82.4% and 94.7% and 101% | 91.1% and 106% and 92% | 81.2% and 87.7% and 86.1% | 61.1% and 71.2% and 64.3% |  |  |  |  |
| 452 nM and 275 nM and 412 nM |  | CC1COCCN1c1cc(-c2ccnn2C)c2ccnc(-c3ccn[nH]3)c2n1 (stereo unspecified) | 78.3% and 73.2% and 70.2% | 59.2% and 55.7% and 62.7% | 57.2% and 47.1% and 50.2% | 43.9% and 42.6% and 44.5% | 30.3% and 34% and 31.6% | 24.4% (2×) and 23.9% |  |  |  |  |
| 226 nM and 195 nM and 173 nM |  | CC1COCCN1c1cc(C2(O)CC3CCC(C2)O3)c2cnn(-c3ccn[nH]3)c2n1 (stereo unspecified) | 68.2% and 80.2% and 69% | 66.9% and 48.7% and 53.4% | 39.5% and 49.8% and 44.3% | 32.1% and 33.8% and 33.2% | 21.9% and 25.7% and 22.9% | 12.9% and 16.6% and 12.2% |  |  |  |  |
| > 10000 nM and 7960 nM |  | CC1COCCN1c1cc(C2(S(C)(=N)=O)CC2)nc(-c2ccnc3[nH]ccc23)n1 (stereo unspecified) | 95.1% and 98% and 118% | 110% and 95.7% and 101% | 84.8% and 84.3% and 101% | 83.6% and 72.9% and 77.3% | 73.7% and 63.8% and 58% | 52.1% and 46.3% and 51.5% |  |  |  |  |
|  |  | CCCS(=O)(=O)Nc1ccc(F)c(C(=O)c2c[nH]c3ncc(-c4ccc(Cl)cc4)cc23)c1F | 105% and 100% and 95.2% | 81.5% and 87% and 92.4% | 51.8% and 93% and 109% | 43% and 88.8% and 110% | 40% and 64.2% and 82.7% | 34.2% and 30.7% and 36.3% |  |  |  |  |
| > 316 nM and 93.3 nM |  | CC[C@@]1(O)C(=O)OCc2c1cc1n(c2=O)Cc2cc3c(CN(C)C)c(O)ccc3nc2-1 | 78.6% and 59.5% and 63.7% |  | 52.4% and 46.4% and 50.7% |  |  |  | 102% and 100% and 105% | 102% and 88.7% and 106% | 87.2% and 87.7% and 96.7% | 57.2% and 51.5% and 58.3% |
| 10.5 nM and 6.82 nM and 6.81 nM |  | CCc1c2c(nc3ccc(O)cc13)-c1cc3c(c(=O)n1C2)COC(=O)[C@]3(O)CC | 34.9% and 28.8% and 33.9% |  | 6.84% and 7.73% and 9.09% |  |  |  | 62% and 58.6% and 64.2% | 58% and 49.7% and 56.6% | 51.5% and 50.8% and 46.9% | 19.2% and 15.7% and 20.2% |
|  | > 10000 nM | CN(C)c1ccc(Nc2c3ccc(NC(=O)CCN4CCCC4)cc3nc3cc(NC(=O)CCN4CCCC4)ccc23)cc1 | 102% [middle of 12 runs] | 105% [middle of 12 runs] | 104% [middle of 12 runs] | 105% [middle of 12 runs] | 95.9% [middle of 12 runs] | 67% [middle of 12 runs] |  |  |  |  |
